Experimental data reported in US20250195521A1 (Revolution Medicines, Inc., priority 2020, published 2025).
Where two headings read alike, the source gives them in different places.

Columns and labels:
NCI-H358 (K-Ras G12C) = experiment: CellTiter-Glo cell viability assay, NCI-H358; format: cell-based, human
Outline: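 Viability read-out was luminescent (CellTiter-Glo) on day 5 of compound exposure in K-Ras G12C NCI-H358 cells. Values were expressed as percent of mean DMSO signal and fitted with a four-parameter logistic curve.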

[1] = target: K-Ras G12C(GMP-PNP) binding to BRAF RBD (Homo sapiens (Human), UniProt P01116+P62937, G12C); experiment: Disruption of BRAF RBD interaction with K-Ras (FRET / MOA assay), K-Ras G12C; format: biochemical; settings: read-out: KRAS G12C FRET IC50
Chain of K-Ras G12C(GMP-PNP) binding to BRAF RBD (P01116 other isoform, or with tags, fused parts or gaps G12C): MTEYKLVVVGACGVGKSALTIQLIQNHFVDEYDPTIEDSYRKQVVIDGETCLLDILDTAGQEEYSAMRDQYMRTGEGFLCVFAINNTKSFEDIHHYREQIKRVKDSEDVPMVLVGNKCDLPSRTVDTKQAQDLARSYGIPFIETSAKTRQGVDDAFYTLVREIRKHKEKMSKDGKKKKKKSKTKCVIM
Chain of K-Ras G12C(GMP-PNP) binding to BRAF RBD (P62937 whole entry): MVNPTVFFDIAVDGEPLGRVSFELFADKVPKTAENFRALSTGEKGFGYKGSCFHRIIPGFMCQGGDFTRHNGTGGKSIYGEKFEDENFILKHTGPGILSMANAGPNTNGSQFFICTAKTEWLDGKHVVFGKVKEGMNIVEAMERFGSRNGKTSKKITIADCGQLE
Outline: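 First, test compounds in a 10-point 3-fold series (30 μM final top) were incubated for 3 hours at 25° C with nucleotide-loaded Ras, cyclophilin A and a BRAF RBD construct. Next, Eu anti-His and allophycocyanin anti-GST detection reagents were added for 1.5 hours. Finally, IC50s were derived from loss of TR-FRET signal against DMSO.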

[2] = test system: Capan-1 cells (K-Ras G12V); experiment: CellTiter-Glo cell viability, Capan-1; format: cell-based, human; settings: read-out: Capan-1 Cell Viability IC50
Outline: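 Viability read by luminescence on day 5 after direct compound addition to cells, following ~30 min room-temperature equilibration. Values expressed as percent of mean DMSO signal, curves fitted with a four-parameter logistic model.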

[3] = test system: K-Ras G12C (NCI-H358 cells); experiment: Potency assay: pERK in NCI-H358 cells; format: cell-based, human; settings: read-out: pERK EC50 (H358 KRAS G12C)
Outline: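 Cells plated the day before were exposed for 4 h at 37° C, 5% CO2 to a 10-point, 3-fold DMSO dilution series (10 mM top stock), in duplicate. Phospho-ERK was read by AlphaLISA SureFire Ultra or by In-Cell Western with DRAQ5 DNA stain, and IC50 came from a 4-parameter sigmoidal fit.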

[4] = Homo sapiens, NCI-H358, 120 h, 5-day treatment, read-out: H358 Cell Viability assay data (K-Ras G12C, IC50)
[5] = Homo sapiens, CAPAN-1, 120 h, K-Ras G12V, 5-day treatment
[6] = Homo sapiens, NCI-H358 cells, 4 hours
[7] = 5-day treatment, read-out: H358 Cell Viability assay data (K-Ras G12C, IC50)

| IC50 (NCI-H358 (K-Ras G12C); [4]) | IC50 [1] | EC50 [3, 6] | Compound | IC50 [2, 5] | IC50 (NCI-H358 (K-Ras G12C); [7]) | IC50 ([2]; K-Ras G12V, 5-day treatment) | EC50 ([3]; NCI-H358 cells, 4 hours) | IC50 (NCI-H358 (K-Ras G12C); Homo sapiens, NCI-H358, 120 h, read-out: H358 Cell Viability assay data (K-Ras G12C, IC50, uM), 5-day treatment) | IC50 ([2]; Homo sapiens, CAPAN-1, 120 h) | EC50 ([3]; Homo sapiens, NCI-H358, 4 h) |
| --- | --- | --- | --- | --- | --- | --- | --- | --- | --- | --- |
| 0.01 to 0.1 µM | 0.1 to 1 µM | < 5 µM | CCn1c(-c2cccnc2[C@H](C)OC)c2c3cc(ccc31)-c1csc(n1)C[C@H](NC(=O)[C@H](C(C)C)N(C)C(=O)N1CCC13CCS(=O)(=O)CC3)C(=O)N1CCC[C@H](N1)C(=O)OCC(C)(C)C2 [Compound A530] | 0.1 to 1 µM | – | – | – | – | – | – |
| < 0.01 µM | 0.01 to 0.1 µM | < 5 µM | CCn1c(-c2cccnc2[C@H](C)OC)c2c3cc(ccc31)-c1csc(n1)C[C@H](NC(=O)[C@H](C(C)C)N(C)C(=O)N1CC([C@H](C)COC)C1)C(=O)N1CCC[C@H](N1)C(=O)OCC(C)(C)C2 [Compound A533] | 0.01 to 0.1 µM | – | – | – | – | – | – |
| < 0.01 µM | 0.01 to 0.1 µM | < 5 µM | CCn1c(-c2cccnc2[C@H](C)OC)c2c3cc(ccc31)-c1csc(n1)C[C@H](NC(=O)[C@H](C(C)C)N(C)C(=O)N1CCN3C(=O)CN(C)C[C@H]3C1)C(=O)N1CCC[C@H](N1)C(=O)OCC(C)(C)C2 [Compound A537] | 0.01 to 0.1 µM | – | – | – | – | – | – |
| 0.01 to 0.1 µM | 0.01 to 0.1 µM | < 5 µM | CCn1c(-c2cccnc2[C@H](C)OC)c2c3cc(ccc31)-c1csc(n1)C[C@H](NC(=O)[C@H](C(C)C)N(C)C(=O)N1CC([C@H](C)N(C)C)C1)C(=O)N1CCC[C@H](N1)C(=O)OCC(C)(C)C2 [Compound A538] | 0.01 to 0.1 µM | – | – | – | – | – | – |
| 0.01 to 0.1 µM | 0.01 to 0.1 µM | < 5 µM | CCn1c(-c2cccnc2[C@H](C)OC)c2c3cc(ccc31)-c1csc(n1)C[C@H](NC(=O)[C@H](C(C)C)N(C)C(=O)N1CCCC13CN(C)C3)C(=O)N1CCC[C@H](N1)C(=O)OCC(C)(C)C2 [Compound A545] | 0.1 to 1 µM | – | – | – | – | – | – |
| 0.01 to 0.1 µM | 0.01 to 0.1 µM | < 5 µM | CCn1c(-c2cccnc2[C@H](C)OC)c2c3cc(ccc31)-c1csc(n1)C[C@H](NC(=O)[C@H](C(C)C)N(C)C(=O)N1CC[C@@H]1CN)C(=O)N1CCC[C@H](N1)C(=O)OCC(C)(C)C2 [Compound A558] | 0.1 to 1 µM | – | – | – | – | – | – |
| < 0.01 µM | 0.01 to 0.1 µM | < 5 µM | CCn1c(-c2cccnc2[C@H](C)OC)c2c3cc(ccc31)-c1cc(O)cc(c1)C[C@H](NC(=O)[C@H](C(C)C)N(C)C(=O)[C@@H]1OCC[C@H]1c1ccccc1)C(=O)N1CCC[C@H](N1)C(=O)OCC(C)(C)C2 [Compound A584] | 0.1 to 1 µM | – | – | – | – | – | – |
| < 0.01 µM | 0.01 to 0.1 µM | < 5 µM | CCn1c(-c2cccnc2[C@H](C)OC)c2c3cc(ccc31)-c1csc(n1)C[C@H](NC(=O)[C@H](C(C)C)N(C)C(=O)N1CCN(C(=O)[C@@H]3CCCN3C)CC1)C(=O)N1CCC[C@H](N1)C(=O)OCC(C)(C)C2 [Compound A596] | 0.1 to 1 µM | – | – | – | – | – | – |
| < 0.01 µM | 0.01 to 0.1 µM | < 5 µM | CCn1c(-c2cccnc2[C@H](C)OC)c2c3cc(ccc31)-c1csc(n1)C[C@H](NC(=O)[C@H](C(C)C)N(C)C(=O)N1CC(O)(CN(C)C)C1)C(=O)N1CCC[C@H](N1)C(=O)OCC(C)(C)C2 [Compound A597] | 0.1 to 1 µM | – | – | – | – | – | – |

The next lines start with the molecule.

| Compound | IC50 (NCI-H358 (K-Ras G12C); [4]) | IC50 [1] | EC50 [3, 6] | IC50 [2, 5] | IC50 (NCI-H358 (K-Ras G12C); [7]) | IC50 ([2]; K-Ras G12V, 5-day treatment) | EC50 ([3]; NCI-H358 cells, 4 hours) | IC50 (NCI-H358 (K-Ras G12C); Homo sapiens, NCI-H358, 120 h, read-out: H358 Cell Viability assay data (K-Ras G12C, IC50, uM), 5-day treatment) | IC50 ([2]; Homo sapiens, CAPAN-1, 120 h) | EC50 ([3]; Homo sapiens, NCI-H358, 4 h) |
| --- | --- | --- | --- | --- | --- | --- | --- | --- | --- | --- |
| CCn1c(-c2cc(N3CCN(C)CC3)cnc2[C@H](C)OC)c2c3cc(ccc31)-c1csc(n1)C[C@H](NC(=O)[C@H](C(C)C)N(C)C(=O)[C@@H]1CCCS1(=O)=O)C(=O)N1CCC[C@H](N1)C(=O)OCC(C)(C)C2 [Compound A440] | < 0.01 µM | 0.01 to 0.1 µM | < 5 µM | 0.01 to 0.1 µM | – | – | – | – | – | – |
| CCn1c(-c2cccnc2[C@H](C)OC)c2c3cc(ccc31)-c1csc(n1)C[C@H](NC(=O)[C@H](C(C)C)N(C)C(=O)N1C[C@@H]3OCCN(C)[C@@H]3C1)C(=O)N1CCC[C@H](N1)C(=O)OCC(C)(C)C2 [Compound A444] | < 0.01 µM | 0.01 to 0.1 µM | < 5 µM | 0.01 to 0.1 µM | – | – | – | – | – | – |
| CCO[C@@H]1c2nc(cs2)-c2ccc3c(c2)c(c(-c2cc(C4CCN(C5COC5)CC4)cnc2[C@H](C)OC)n3CC)CC(C)(C)COC(=O)[C@@H]2CCCN(N2)C(=O)[C@H]1NC(=O)[C@H]1[C@H](C)[C@@H]1C [Compound A449, (1r,2R,3S)—N-((6^3S,3S,4S,Z)-3-ethoxy-1^1-ethyl-1^2-(2-((S)-1-methoxyethyl)-5-(1-(oxetan-3-yl)piperidin-4-yl)pyridin-3-yl)-10,10-dimethyl-5,7-dioxo-6^1,6^2,6^3,6^4,6^5,6^6-hexahydro-1^1H-8-oxa-2 (4,2)-thiazola-1 (5,3)-indola-6 (1,3)-pyridazinacycloundecaphane-4-yl)-2,3-dimethylcyclopropane-1-carboxamide] | – | 0.1 to 1 µM | – | – | 0.01 to 0.1 µM | 0.1 to 1 µM | < 5 µM | – | – | – |
| CCn1c(-c2cccnc2[C@H](C)OC)c2c3cc(ccc31)-c1csc(n1)[C@@H](OCC1CCN(C)CC1)[C@H](NC(=O)[C@H]1C[C@@H]1C)C(=O)N1CCC[C@H](N1)C(=O)OCC(C)(C)C2 [Compound A451, (1S,2S)—N-((6^3S,3S,4S,Z)-1^1-ethyl-1^2-(2-((S)-1-methoxyethyl)pyridin-3-yl)-10,10-dimethyl-3-((1-methylpiperidin-4-yl)methoxy)-5,7-dioxo-6^1,6^2,6^3,6^4,6^5,6^6-hexahydro-1^1H-8-oxa-2 (4,2)-thiazola-1 (5,3)-indola-6 (1,3)-pyridazinacycloundecaphane-4-yl)-2-methylcyclopropane-1-carboxamide] | – | 0.1 to 1 µM | – | – | 0.01 to 0.1 µM | 0.01 to 0.1 µM | < 5 µM | – | – | – |
| CCn1c(-c2cccnc2[C@H](C)OC)c2c3cc(ccc31)-c1csc(n1)C[C@H](NC(=O)[C@H](C(C)C)N(C)C(=O)N1C[C@H]3CN(C)CC[C@H]31)C(=O)N1CCC[C@H](N1)C(=O)OCC(C)(C)C2 [Compound A462] | < 0.01 µM | 0.1 to 1 µM | < 5 µM | 0.1 to 1 µM | – | – | – | – | – | – |
| CCn1c(-c2cccnc2[C@H](C)OC)c2c3cc(ccc31)-c1csc(n1)C[C@H](NC(=O)[C@H](C(C)C)N(C)C(=O)N1CC[C@H]1CN)C(=O)N1CCC[C@H](N1)C(=O)OCC(C)(C)C2 [Compound A463] | < 0.01 µM | 0.01 to 0.1 µM | < 5 µM | 1 to 10 µM | – | – | – | – | – | – |
| CCn1c(-c2cccnc2[C@H](C)OC)c2c3cc(ccc31)-c1csc(n1)C[C@H](NC(=O)[C@H](C(C)C)N(C)C(=O)N1CC[C@]3(CCNC3=O)C1)C(=O)N1CCC[C@H](N1)C(=O)OCC(C)(C)C2 [Compound A479] | < 0.01 µM | < 0.01 µM | < 5 µM | 1 to 10 µM | – | – | – | – | – | – |
| CCOC1c2nc(cs2)-c2ccc3c(c2)c(c(-c2cc(C4CC5COCC(C4)N5C4CC4)cnc2C(C)OC)n3CC)CC(C)(C)COC(=O)C2CCCN(N2)C(=O)C1NC(=O)C1C(C)C1C [Compound A483, (1r,2R,3S)—N-((6^3S,3S,4S,Z)-12-(5-((1R,5S,7s)-9-cyclopropyl-3-oxa-9-azabicyclo[3.3.1]nonan-7-yl)-2-((S)-1-methoxyethyl)pyridin-3-yl)-3-ethoxy-1^1-ethyl-10,10-dimethyl-5,7-dioxo-6^1,6^2,6^3,6^4,6^5,6^6-hexahydro-1^1H-8-oxa-2 (4,2)-thiazola-1 (5,3)-indola-6 (1,3)-pyridazinacycloundecaphane-4-yl)-2,3-dimethylcyclopropane-1-carboxamide] | – | 0.1 to 1 µM | – | – | < 0.01 µM | 0.01 to 0.1 µM | < 5 µM | – | – | – |
| CCn1c(-c2cccnc2[C@H](C)OC)c2c3cc(ccc31)-c1csc(n1)C[C@H](NC(=O)[C@H](C(C)C)N(C)C(=O)N1CCC[C@H](N(C)C)CC1)C(=O)N1CCC[C@H](N1)C(=O)OCC(C)(C)C2 [Compound A493] | < 0.01 µM | 0.01 to 0.1 µM | < 5 µM | 0.1 to 1 µM | – | – | – | – | – | – |
| CCn1c(-c2cccnc2[C@H](C)OC)c2c3cc(ccc31)-c1csc(n1)C[C@H](NC(=O)[C@H](C(C)C)N(C)C(=O)N(C)C1(C)COC1)C(=O)N1CCC[C@H](N1)C(=O)OCC(C)(C)C2 [Compound A527] | < 0.01 µM | < 0.01 µM | < 5 µM | 0.01 to 0.1 µM | – | – | – | – | – | – |
| CCn1c(-c2cccnc2[C@H](C)OC)c2c3cc(ccc31)-c1csc(n1)[C@@H](OC)[C@H](NC(=O)[C@H](C(C)C)N(C)C(=O)N(C)C)C(=O)N1CCC[C@H](N1)C(=O)OCC(C)(C)C2 [Compound A598, (2S)—N-((6^3S,3S,4S,Z)-1^1-ethyl-3-methoxy-1^2-(2-((S)-1-methoxyethyl)pyridin-3-yl)-10,10-dimethyl-5,7-dioxo-6^1,6^2,6^3,6^4,6^5,6^6-hexahydro-1^1H-8-oxa-2 (4,2)-thiazola-1 (5,3)-indola-6 (1,3)-pyridazinacycloundecaphane-4-yl)-3-methyl-2-(1,3,3-trimethylureido) butanamide] | – | 0.01 to 0.1 µM | – | – | – | – | – | 0.01 to 0.1 µM | 0.1 to 1 µM | < 5 µM |
